Experimental data as given in patent US10287255B2, “Compounds as histone deacetylase 6 inhibitors and pharmaceutical compositions comprising the same” (CHONG KUN DANG PHARMACEUTICAL CORP., priority 2014, dated 2019).

What was measured:
[1] = target: T1, human recombinant HDAC6 (Homo sapiens, UniProt Q9UBN7); assay: HDAC6 enzyme activity inhibition assay (in vitro, fluorimetric); type: biochemical; conditions: for HDAC6 selectivity (fold): HDAC6 selectivity over HDAC1; for IC50: human recombinant HDAC6, fluorimetric kit, same protocol as HDAC1
T1 construct: purchased Calbiochem 382180
T1 sequence (Q9UBN7 1-1215): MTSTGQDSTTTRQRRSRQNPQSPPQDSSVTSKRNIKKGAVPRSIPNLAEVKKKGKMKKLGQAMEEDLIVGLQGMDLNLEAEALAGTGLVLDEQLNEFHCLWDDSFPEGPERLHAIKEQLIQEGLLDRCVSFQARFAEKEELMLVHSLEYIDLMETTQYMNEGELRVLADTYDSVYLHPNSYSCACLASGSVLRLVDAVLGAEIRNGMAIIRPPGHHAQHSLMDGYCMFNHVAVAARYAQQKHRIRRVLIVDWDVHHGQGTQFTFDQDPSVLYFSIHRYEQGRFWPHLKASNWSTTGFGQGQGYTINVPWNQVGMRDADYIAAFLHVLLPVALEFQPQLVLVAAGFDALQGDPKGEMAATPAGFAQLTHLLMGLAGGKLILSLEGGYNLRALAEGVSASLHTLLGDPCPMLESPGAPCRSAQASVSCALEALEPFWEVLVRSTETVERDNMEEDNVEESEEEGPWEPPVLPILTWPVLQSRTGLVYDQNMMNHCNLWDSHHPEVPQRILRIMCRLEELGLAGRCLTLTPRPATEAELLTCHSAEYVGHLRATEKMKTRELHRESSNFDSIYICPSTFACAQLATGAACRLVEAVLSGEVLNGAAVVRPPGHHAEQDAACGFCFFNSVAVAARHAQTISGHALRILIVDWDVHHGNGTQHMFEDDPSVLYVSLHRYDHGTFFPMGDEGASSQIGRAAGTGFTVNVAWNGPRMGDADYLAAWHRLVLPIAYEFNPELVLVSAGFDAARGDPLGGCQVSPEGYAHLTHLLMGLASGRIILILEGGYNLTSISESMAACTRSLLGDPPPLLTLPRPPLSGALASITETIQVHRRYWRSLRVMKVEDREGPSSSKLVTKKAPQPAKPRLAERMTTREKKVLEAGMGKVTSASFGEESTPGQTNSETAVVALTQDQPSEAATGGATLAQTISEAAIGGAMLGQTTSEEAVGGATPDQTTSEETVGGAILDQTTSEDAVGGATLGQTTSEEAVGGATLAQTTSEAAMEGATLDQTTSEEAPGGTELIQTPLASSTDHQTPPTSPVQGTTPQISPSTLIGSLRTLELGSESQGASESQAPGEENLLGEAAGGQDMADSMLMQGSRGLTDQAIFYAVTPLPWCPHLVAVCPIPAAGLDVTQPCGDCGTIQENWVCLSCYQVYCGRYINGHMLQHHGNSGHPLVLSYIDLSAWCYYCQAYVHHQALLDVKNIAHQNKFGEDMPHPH
Procedure: (§1) In order to examine the HDAC6 selectivity of the compounds of formula 1 of the present invention by HDAC1 and HDAC6 enzymatic activity inhibition assays, an experiment was performed using a conventional substance as a control.
(§2) HDAC enzyme activity was measured using a HDAC Fluorimetric Drug Discovery Kit (BML-AK511, 516, Enzo Life Science). For the HDAC1 enzyme activity test, human recombinant HDAC1 (BML-SE456) was used as an enzyme source, and Fluor de Lys®-“SIRT1 (BNL-KI177) was used as a substrate. A 5-fold dilution of the compound was seeded into a 96-well plate, and then 0.3 μg of the enzyme and 10 μM of the substrate were added to each well of the plate and allowed to react at 30° C. for 60 minutes. Then, Fluor de Lys® Developer II (BML-KI176) was added thereto and allowed to react for 30 minutes, after which the fluorescence value (Ex 360, Em 460) was measured using a multi-plate reader (Flexstation 3, Molecular Device). The HDAC6 enzyme was tested using human recombinant HDAC6 (382180) (Calbiochem) according to the same protocol as the HDAC1 enzyme activity test method. Based on the resulting values, each IC50 value was calculated using GraphPad Prism4.0 program.

[2] = target: T2, human recombinant HDAC1 (Homo sapiens, UniProt Q13547); assay: HDAC1 enzyme activity inhibition assay (in vitro, fluorimetric); type: biochemical; conditions: human recombinant HDAC1, fluorimetric kit, 30° C. 60 minutes
T2 construct: purchased Enzo Life Science BML-SE456
Procedure: as §1, §2

T2 sequence (Q13547 whole entry): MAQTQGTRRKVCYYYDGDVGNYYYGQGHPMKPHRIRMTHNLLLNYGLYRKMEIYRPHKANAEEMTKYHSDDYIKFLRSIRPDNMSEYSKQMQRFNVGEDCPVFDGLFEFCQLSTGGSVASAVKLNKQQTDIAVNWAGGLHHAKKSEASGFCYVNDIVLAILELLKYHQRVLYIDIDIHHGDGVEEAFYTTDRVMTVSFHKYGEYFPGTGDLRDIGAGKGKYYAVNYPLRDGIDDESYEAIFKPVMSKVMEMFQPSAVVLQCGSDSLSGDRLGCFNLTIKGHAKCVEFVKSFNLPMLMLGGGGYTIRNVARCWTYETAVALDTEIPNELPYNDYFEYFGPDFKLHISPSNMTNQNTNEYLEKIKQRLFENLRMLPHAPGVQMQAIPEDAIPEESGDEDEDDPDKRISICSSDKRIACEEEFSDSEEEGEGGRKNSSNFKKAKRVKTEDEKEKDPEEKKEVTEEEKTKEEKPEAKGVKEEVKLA

Compound | HDAC6 selectivity (fold) [1] | IC50 [1] | IC50 [2]
C[C@@H]1CN(C(=O)c2ccccc2)C[C@H](C)N1Cc1ccc(C(=O)NO)cc1 [Compound 080, 4-(((2S,6R)-4-benzoyl-2,6-dimethylpiperazin-1-yl)methyl)-N-hydroxybenzamide] | 37 fold | 179 nM | 6600 nM
C[C@@H]1CN(Cc2ccccc2)C[C@H](C)N1Cc1ccc(C(=O)NO)cc1 [Compound 081, 4-(((2S,6R)-4-benzyl-2,6-dimethylpiperazin-1-yl)methyl)-N-hydroxybenzamide] | 78 fold | 144 nM | 11200 nM
CC(=O)N1[C@H](C)CN(Cc2ccc(C(=O)NO)cc2)C[C@@H]1C [Compound 082, 4-(((3R,5S)-4-acetyl-3,5-dimethylpiperazin-1-yl)methyl)-N-hydroxybenzamide] | 369 fold | 34 nM | 12500 nM
C[C@@H]1CN(Cc2ccc(C(=O)NO)cc2)C[C@H](C)N1C(=O)c1ccccc1 [Compound 083, 4-(((3R,5S)-4-benzoyl-3,5-dimethylpiperazin-1-yl)methyl)-N-hydroxybenzamide] | 201 fold | 10 nM | 2000 nM
C[C@@H]1CN(Cc2ccc(C(=O)NO)cc2)C[C@H](C)N1Cc1ccccc1 [Compound 084, 4-(((3R,5S)-4-benzyl-3,5-dimethylpiperazin-1-yl)methyl)-N-hydroxybenzamide] | – | 23 nM | 11900 nM
CC(C)NC(=O)N1[C@H](C)CN(Cc2ccc(C(=O)NO)cc2)C[C@@H]1C [Compound 098, (2S,6R)-4-(4-(hydroxycarbamoyl)benzyl)-N-isopropyl-2,6-dimethylpiperazine-1-carboxamide] | >133 fold | 75 nM | > 10000 nM
C[C@@H]1CN(S(=O)(=O)c2ccccc2)C[C@H](C)N1Cc1ccc(C(=O)NO)cc1 [Compound 105, 4-(((2S,6R)-2,6-dimethyl-4-(phenylsulfonyl)piperazin-1-yl)methyl)-N-hydroxybenzamide] | 27 fold | 60 nM | 1600 nM
C[C@@H]1CN(C(=O)c2ccc(Cl)cc2)C[C@H](C)N1Cc1ccc(C(=O)NO)cc1 [Compound 106, 4-(((2S,6R)-4-(4-chlorobenzoyl)-2,6-dimethylpiperazin-1-yl)methyl)-N-hydroxybenzamide] | 61 fold | 119 nM | 7300 nM
C[C@@H]1CN(C(=O)c2cccc(Cl)c2)C[C@H](C)N1Cc1ccc(C(=O)NO)cc1 [Compound 107, 4-(((2S,6R)-4-(3-chlorobenzoyl)-2,6-dimethylpiperazin-1-yl)methyl)-N-hydroxybenzamide] | 81 fold | 103 nM | 8300 nM
C[C@@H]1CN(S(=O)(=O)c2ccc(Cl)cc2)C[C@H](C)N1Cc1ccc(C(=O)NO)cc1 [Compound 109, 4-(((2S,6R)-4-((4-chlorophenyl)sulfonyl)-2,6-dimethylpiperazin-1-yl)methyl)-N-hydroxybenzamide] | 67 fold | 75 nM | 5100 nM
C[C@@H]1CN(S(=O)(=O)c2ccccc2Cl)C[C@H](C)N1Cc1ccc(C(=O)NO)cc1 [Compound 110, 4-(((2S,6R)-4-((2-chlorophenyl)sulfonyl)-2,6-dimethylpiperazin-1-yl)methyl)-N-hydroxybenzamide] | 59 fold | 85 nM | 5000 nM
C[C@@H]1CN(Cc2ccc(C(=O)NO)c(F)c2)C[C@H](C)N1Cc1ccccc1 [Compound 171, 4-(((3R,5S)-4-benzyl-3,5-dimethylpiperazin-1-yl)methyl)-2-fluoro-N-hydroxybenzamide] | >256 fold | 39 nM | –
C[C@@H]1CN(Cc2ccc(C(=O)NO)cc2)C[C@H](C)N1CCc1ccccc1 [Compound 184, 4-(((3R,5S)-3,5-dimethyl-4-phenethylpiperazin-1-yl)methyl)-N-hydroxybenzamide] | >40 fold | 249 nM | –
C[C@@H]1CN(Cc2ccc(C(=O)NO)cc2)C[C@H](C)N1Cc1ccccc1C1=CCC(C)(C)CC1 [Compound 331, 4-(((3R,5S)-4-((4′,4′-dimethyl-2′,3′,4′,5′-tetrahydro-[1,1′-biphenyl]-2-yl)methyl)-3,5-dimethylpiperazin-1-yl)methyl)-N-hydroxybenzamide] | 13 fold | 731 nM | –
CC(C)CCN1CCN(Cc2cccc(CN3[C@H](C)CN(Cc4ccc(C(=O)NO)cc4)C[C@@H]3C)c2)CC1 [Compound 454, N-hydroxy-4-(((3R,5S)-4-(3-((4-isopentylpiperazin-1-yl)methyl)benzyl)-3,5-dimethylpiperazin-1-yl)methyl)benzamide] | – | 44 nM | –
C[C@@H]1CN(Cc2ccc3oc(C(=O)NO)cc3c2)C[C@H](C)N1Cc1ccccc1 [Compound 571, 5-(((3R,5S)-4-benzyl-3,5-dimethylpiperazin-1-yl)methyl)-N-hydroxybenzofuran-2-carboxamide] | 48 fold | 210 nM | –

Other lines, results leading:

HDAC6 selectivity (fold) [1] | IC50 [1] | IC50 [2] | Compound
51 fold | 242 nM | 12400 nM | C[C@@H]1CN(Cc2ccc(C(=O)NO)cc2)C[C@H](C)N1C(=O)Nc1cccc(Cl)c1 [Compound 099, (2S,6R)-N-(3-chlorophenyl)-4-(4-(hydroxycarbamoyl)benzyl)-2,6-dimethylpiperazine-1-carboxamide]
>105 fold | 95 nM | > 10000 nM | C[C@@H]1CN(Cc2ccc(C(=O)NO)cc2)C[C@H](C)N1S(=O)(=O)c1ccccc1 [Compound 100, 4-(((3R,5S)-3,5-dimethyl-4-(phenylsulfonyl)piperazin-1-yl)methyl)-N-hydroxybenzamide]
15 fold | 173 nM | 2600 nM | CC(C)NC(=O)N1C[C@@H](C)N(Cc2ccc(C(=O)NO)cc2)[C@@H](C)C1 [Compound 103, (3R,5S)-4-(4-(hydroxycarbamoyl)benzyl)-N-isopropyl-3,5-dimethylpiperazine-1-carboxamide]
9 fold | 82 nM | 700 nM | C[C@@H]1CN(C(=O)Nc2cccc(Cl)c2)C[C@H](C)N1Cc1ccc(C(=O)NO)cc1 [Compound 104, (3R,5S)-N-(3-chlorophenyl)-4-(4-(hydroxycarbamoyl)benzyl)-3,5-dimethylpiperazine-1-carboxamide]
79 fold | 166 nM | 13100 nM | C[C@@H]1CN(C(=O)c2ccccc2Cl)C[C@H](C)N1Cc1ccc(C(=O)NO)cc1 [Compound 108, 4-(((2S,6R)-4-(2-chlorobenzoyl)-2,6-dimethylpiperazin-1-yl)methyl)-N-hydroxybenzamide]
>22 fold | 461 nM | > 10000 nM | C[C@@H]1CN(C(=O)c2ccccn2)C[C@H](C)N1Cc1ccc(C(=O)NO)cc1 [Compound 111, 4-(((2S,6R)-2,6-dimethyl-4-picolinoylpiperazin-1-yl)methyl)-N-hydroxybenzamide]
>23 fold | 429 nM | – | C[C@@H]1CN(Cc2ccccc2)C[C@H](C)N1Cc1ccc(CC(=O)NO)cc1 [Compound 176, 2-(4-(((2S,6R)-4-benzyl-2,6-dimethylpiperazin-1-yl)methyl)phenyl)-N-hydroxyacetamide]
